Reference: article PMC7731115, “Cytotoxic, Apoptosis-Inducing Activities, and Molecular Docking of a New Sterol from Bamboo Shoot Skin Phyllostachys heterocycla var. pubescens” (Molecules, 2020)
“And” between values parts separate entries of the source, which are not always exact repeats. Equal values may be shown once. Read-outs that look alike come from different tables or passages of the source.

Tests used:
[1] = tested on: HepG2; assay: MTT cytotoxic assay, HepG2; type: cell-based; settings: Homo sapiens, read-out: IC50 ± SD HepG2
Description: (§1) Crude extracts, in addition to six sterol compounds, were screened for their cytotoxic activities against four cancerous cell lines: HepG2, Hela, A549, and MCF-7 and a noncancerous breast (MCF-10A) cell line to test their safety using the MTT assay (Table 2). […] After fractionation and isolation of the pure compounds, six compounds were tested for their cytotoxicity. […] Additionally, it was safe against the normal cells, with IC50 ≥ 50.
(§2) Crude extract, together with six of the identified sterols, were screened for their cytotoxic activities against liver HepG2, breast MCF-7, and normal cells (MCF-10A), as well. According to the standard cell culture work, each cell line was cultured in a proper complete medium. The treatment of cells was performed with the crude extract and then, with the identified compounds for a 48-h incubation, and Fluorouracil (5-FU) was used as the standard. Percent of cell viability was calculated by the following formula: % cell viability = (Mean absorbance of tested compound)/(Mean absorbance in control) × 100. Then, IC50 in µM was calculated using GraphPad Prism 7.

[2] = tested on: MCF-7; assay: MTT cytotoxic assay, MCF-7; type: cell-based, human
Description: as §1, §2

[3] = tested on: Normal Cells MCF-10A; assay: MTT cytotoxic assay, normal cells MCF-10A; type: cell-based; settings: Homo sapiens, pure compounds, 48-h incubation, n = 3, read-out: IC50 ± SD Normal Cells MCF-10A
Description: as §1, §2

[4] = tested on: MCF-7 cancer cells; assay: Annexin V/PI flow cytometric apoptosis/necrosis assessment; type: cell-based, human; settings: MCF-7, treated at IC50 = 25.92 μM, 48 h
Excerpt: (§3) Moreover, MCF-7 cancer cells after compound 1 treatment were subjected to DNA flow cytometry to analyse the cell cycle kinetics to determine the compound’s phase interference with the cell cycle. The study of the cell cycle is a crucial test showing the cell accumulation percentage in each growth phase with cytotoxic substances after treatment. […] Consequently, compound 1 induced pre-G1 and G2/M-phase cell cycle arrest and blocked the progression of MCF-7 cancer cells that deteriorated the genetic material.
(§4) Cell cycle analysis, as well as apoptotic assays, were performed in detail according to the previously described methods. Full methodologies of flow cytometric assays were provided in the Supplementary File.

[5] = tested on: MCF-7 cancer cells; assay: DNA content flow cytometry cell cycle analysis; type: cell-based, human; settings: MCF-7, treated at IC50 = 25.92 μM, 48 h
Excerpt: as §3, §4

[6] = tested on: P53 gene; assay: RT-PCR mRNA expression in MCF-7 cells, P53; type: cell-based, human; settings: MCF-7, treated at IC50 = 25.92 μM, 48 h
Description: (§5) The results are in accordance with the proposed apoptotic pathway for anticancer activity.
(§6) At the end of treatments, cells were collected, and total RNA was extracted using a RNeasy® Mini Kit (Qiagen, Hilden, Germany) according to the manufacturer’s instructions. cDNA synthesis was performed with 500 ng of RNA using the i-Script cDNA synthesis kit (Bio-Rad, Hercules, CA, USA) following the manufacturer’s instructions. Real-time (RT)-PCR reactions consisted of 25-µL Fluocycle®II SYBR® (Euroclone, Milan, Italy), 1.5 µL of both 10-µM forward and reverse primers, 3-µL cDNA, and 19 µL of H2O. All reactions were performed for 35 cycles using this temperature profile: 95 °C for 5 m (initial denaturation); 95 °C for […] (Denaturation), 55 °C for […] (Annealing), and 72 °C for […] (Extension). Then, The cycle threshold (Ct) values were collected and the relative folds of changes between all the samples. Primer used were listed in the Supplementary Files.

[7] = tested on: BAX; assay: RT-PCR mRNA expression in MCF-7 cells, BAX; type: cell-based, human; settings: MCF-7, treated at IC50 = 25.92 μM, 48 h
Description: as §5, §6

[8] = tested on: antiapoptotic Bcl-2 gene; assay: RT-PCR mRNA expression in MCF-7 cells, Bcl-2; type: cell-based, human; settings: MCF-7, treated at IC50 = 25.92 μM, 48 h
Description: as §5, §6

[9] = tested on: caspase 3; assay: RT-PCR mRNA expression in MCF-7 cells, caspase 3; type: cell-based, human; settings: MCF-7, treated at IC50 = 25.92 μM, 48 h
Description: as §5, §6

[10] = tested on: caspase 8; assay: RT-PCR mRNA expression in MCF-7 cells, caspase 8; type: cell-based, human; settings: MCF-7, treated at IC50 = 25.92 μM, 48 h
Description: as §5, §6

[11] = tested on: caspase 9; assay: RT-PCR mRNA expression in MCF-7 cells, caspase 9; type: cell-based, human; settings: MCF-7, treated at IC50 = 25.92 μM, 48 h
Description: as §5, §6

[12] = tested on: Hela; assay: MTT cytotoxic assay, Hela; type: cell-based; settings: Homo sapiens
Description: as §1, §2

[13] = tested on: A549; assay: MTT cytotoxic assay, A549; type: cell-based; settings: Homo sapiens, read-out: IC50 ± SD A549
Description: as §1, §2

[14] = HepG2, pure compounds, MTT, 48-h incubation, n = 3
[15] = Homo sapiens, MCF7, 48 h, pure compounds, MTT, 48-h incubation, n = 3, read-out: IC50 ± SD MCF-7
[16] = pure compounds, MTT, 48-h incubation, n = 3, read-out: IC50 ± SD Hela
[17] = A549, pure compounds, MTT, 48-h incubation, n = 3

CCCCCC/C=C\C/C=C\CCCCCCC(=O)OC[C@H]1O[C@@H](O[C@H]2CCC3(C)C(=CCC4C3CCC3(C)C(C(C)CCC(CC)C(C)C)CCC43)C2)[C@H](O)[C@@H](O)[C@@H]1O (stereo partly drawn) [Compound 1, (6’-O-octadeca-8″,11″-dienoyl)-sitosterol-3-O-β-D-glucoside]
IC50 [1, 14]: 27.5 ± 1.04 µM
IC50 [2, 15]: 25.8 µM
LogIC50 (Figure 4 curve fit) ([2]; MCF-7, nonlinear regression dose-inhibition curve fit): 1.412
IC50 ([2]; pure compounds, MTT, 48-h incubation, n = 3, read-out: IC50 ± SD MCF-7): 25.8 ± 1.04 µM
IC50 [3]: ≥ 50 µM
apoptotic cell death, fold vs control [4]: 32.6 fold
cell death via necrosis, fold vs control [4]: 10.8 fold
apoptotic cell death, total apoptosis ([4]; control 0.51%): 16.63%
cell death via necrosis ([4]; control 0.86%): 9.31%
pre-G1 cell population ([5]; control 1.37%): 25.94%
G2/M cell population ([5]; control 7.46%): 26.74%
cell population in S ([5]; control 34.26%): 24.95%
P53 gene mRNA level, fold change [6]: ≈ 3.55 fold and 3.55± 0.28 fold
BAX mRNA level, fold change [7]: 3.77 fold and 3.77± 0.37 fold
Bcl-2 mRNA level, fold change [8]: ≈ 0.81 fold and 0.81± 0.05 fold
caspase 3 mRNA level, fold change [9]: ≈ 5.01 fold and 5.01± 0.27 fold
caspase 8 mRNA level, fold change [10]: 1.9 fold and 1.9± 0.13 fold
caspase 9 mRNA level, fold change [11]: 5.44 fold and 5.44± 0.49 fold

CC[C@H](CC[C@@H](C)[C@H]1CC[C@H]2[C@@H]3CCC4=CC(=O)CC[C@]4(C)[C@H]3CC[C@]12C)C(C)C [Compound 2, stigmast-4-en-3-one]
IC50 ([12]; 48 h, read-out: IC50 ± SD Hela): 32.5 ± 0.89 µM
IC50 ([13]; A549, 48 h): 45.6 ± 0.75 µM
IC50 ([2]; Homo sapiens, MCF7, 48 h, read-out: IC50 ± SD MCF-7, pure compounds, MTT, 48-h incubation, n = 3): ≥ 50 µM
IC50 [3]: ≥ 50 µM

CCC(CC[C@@H](C)[C@H]1CC[C@H]2[C@@H]3CC(O)C4=CC(=O)CC[C@]4(C)[C@H]3CC[C@]12C)C(C)C (stereo partly drawn) [Compound 3, 6-β-hydroxy-24-ethyl-cholest-4-en-3-one]
IC50 [12, 16]: ≥ 50 µM
IC50 [13, 17]: 49.9 ± 1.03 µM
IC50 [2, 15]: ≥ 50 µM
IC50 [3]: ≥ 50 µM

CC[C@H](CC[C@@H](C)[C@H]1CC[C@H]2[C@@H]3CC=C4C[C@@H](O)CC[C@]4(C)[C@H]3CC[C@]12C)C(C)C [Compound 5, β-sitosterol]
IC50 ([1]; HepG2, 48 h): ≥ 50 µM
IC50 ([12]; 48 h, read-out: IC50 ± SD Hela): 42.3 ± 1.02 µM
IC50 ([13]; A549, 48 h): ≥ 50 µM
IC50 ([2]; Homo sapiens, MCF7, 48 h, read-out: IC50 ± SD MCF-7): ≥ 50 µM
IC50 [3]: ≥ 50 µM

O=c1[nH]cc(F)c(=O)[nH]1 [Compound 5-FU, 5-fluorouracil, reference compound]
IC50 [1, 14]: 15.8 ± 0.28 µM
IC50 [12, 16]: 13 ± 0.65 µM
IC50 [13, 17]: 7.47 ± 0.43 µM
IC50 [2, 15]: 27 ± 0.76 µM
IC50 [3]: ≥ 50 µM

CCCCCCCCCCCCCCCC(=O)OCC1OC(OC2CCC3(C)C(=CCC4C3CCC3(C)C(C(C)CCC(CC)C(C)C)CCC43)C2)C(O)C(O)C1O [Compound 6, (6’-O-palmitoyl)-sitosterol-3-O-β-D-glucoside]
IC50 [1, 14]: 42.5 ± 1.71 µM
IC50 [2, 15]: ≥ 50 µM
IC50 [3]: ≥ 50 µM

CCC(CCC(C)C1CCC2C3CC=C4CC(OC5OC(CO)C(O)C(O)C5O)CCC4(C)C3CCC12C)C(C)C [Compound 7, β-sitosterol-3-O-β-D-glucoside]
IC50 [1, 14]: ≥ 50 µM
IC50 [2, 15]: 38.1 ± 0.98 µM
IC50 [3]: ≥ 50 µM
